Measurements taken from ChEMBL document CHEMBL4028801, “A multifactorial approach to hepatobiliary transporter assessment enables improved therapeutic compound development” (Toxicol Sci, 2013).
pIC50: −log10 of the molar value.

Experiments:
[1] = biological target: Bile salt export pump (Homo sapiens, UniProt O95342); test: Inhibition of human BSEP overexpressed in Sf9 cell membrane vesicles assessed as uptake of [3H]-taurocholate in presence of ATP measured after 15 to 20 mins by membrane vesicle transport assay; format: ADME, cell-based
Sequence of Bile salt export pump (O95342 whole entry): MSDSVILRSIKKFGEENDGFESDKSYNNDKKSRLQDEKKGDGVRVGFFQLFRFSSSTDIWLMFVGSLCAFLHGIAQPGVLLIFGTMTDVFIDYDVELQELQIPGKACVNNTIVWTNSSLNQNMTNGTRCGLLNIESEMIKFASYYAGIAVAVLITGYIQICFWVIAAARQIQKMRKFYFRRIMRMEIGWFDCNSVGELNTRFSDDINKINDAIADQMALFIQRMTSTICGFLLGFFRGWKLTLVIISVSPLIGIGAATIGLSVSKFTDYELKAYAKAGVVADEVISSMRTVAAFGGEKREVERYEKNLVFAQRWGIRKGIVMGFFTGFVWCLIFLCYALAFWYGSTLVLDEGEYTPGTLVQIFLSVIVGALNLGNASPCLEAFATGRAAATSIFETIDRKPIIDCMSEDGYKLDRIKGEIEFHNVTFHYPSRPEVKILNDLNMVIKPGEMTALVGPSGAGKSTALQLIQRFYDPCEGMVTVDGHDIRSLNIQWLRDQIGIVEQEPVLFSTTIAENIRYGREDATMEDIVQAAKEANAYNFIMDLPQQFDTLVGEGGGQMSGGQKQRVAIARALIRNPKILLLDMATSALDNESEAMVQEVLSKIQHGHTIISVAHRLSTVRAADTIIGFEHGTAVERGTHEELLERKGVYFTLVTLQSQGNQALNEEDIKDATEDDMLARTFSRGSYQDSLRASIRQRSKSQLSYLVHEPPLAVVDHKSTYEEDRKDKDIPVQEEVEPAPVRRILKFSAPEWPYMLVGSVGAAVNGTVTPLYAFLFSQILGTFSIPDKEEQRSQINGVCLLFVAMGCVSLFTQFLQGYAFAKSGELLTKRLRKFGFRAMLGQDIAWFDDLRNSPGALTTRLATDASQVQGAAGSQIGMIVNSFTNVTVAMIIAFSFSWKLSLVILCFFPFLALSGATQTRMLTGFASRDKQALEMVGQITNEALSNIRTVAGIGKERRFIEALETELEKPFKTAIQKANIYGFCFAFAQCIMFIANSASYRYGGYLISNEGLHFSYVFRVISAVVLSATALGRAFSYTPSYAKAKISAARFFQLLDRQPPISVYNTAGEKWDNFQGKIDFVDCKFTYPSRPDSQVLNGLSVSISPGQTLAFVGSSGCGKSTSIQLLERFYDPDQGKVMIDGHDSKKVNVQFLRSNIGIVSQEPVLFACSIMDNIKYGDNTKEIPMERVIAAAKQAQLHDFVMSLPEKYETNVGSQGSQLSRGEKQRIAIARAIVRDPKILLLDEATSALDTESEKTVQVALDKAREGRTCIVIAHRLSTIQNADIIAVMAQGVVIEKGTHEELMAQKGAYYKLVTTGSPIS

[2] = biological target: ATP-binding cassette sub-family C member 2 (Homo sapiens, UniProt Q92887); test: Inhibition of human MRP2 overexpressed in Sf9 cell membrane vesicles assessed as uptake of [3H]-estradiol-17beta-D-glucuronide in presence of ATP and GSH measured after 20 mins by membrane vesicle transport assay
Sequence of ATP-binding cassette sub-family C member 2 (Q92887 whole entry): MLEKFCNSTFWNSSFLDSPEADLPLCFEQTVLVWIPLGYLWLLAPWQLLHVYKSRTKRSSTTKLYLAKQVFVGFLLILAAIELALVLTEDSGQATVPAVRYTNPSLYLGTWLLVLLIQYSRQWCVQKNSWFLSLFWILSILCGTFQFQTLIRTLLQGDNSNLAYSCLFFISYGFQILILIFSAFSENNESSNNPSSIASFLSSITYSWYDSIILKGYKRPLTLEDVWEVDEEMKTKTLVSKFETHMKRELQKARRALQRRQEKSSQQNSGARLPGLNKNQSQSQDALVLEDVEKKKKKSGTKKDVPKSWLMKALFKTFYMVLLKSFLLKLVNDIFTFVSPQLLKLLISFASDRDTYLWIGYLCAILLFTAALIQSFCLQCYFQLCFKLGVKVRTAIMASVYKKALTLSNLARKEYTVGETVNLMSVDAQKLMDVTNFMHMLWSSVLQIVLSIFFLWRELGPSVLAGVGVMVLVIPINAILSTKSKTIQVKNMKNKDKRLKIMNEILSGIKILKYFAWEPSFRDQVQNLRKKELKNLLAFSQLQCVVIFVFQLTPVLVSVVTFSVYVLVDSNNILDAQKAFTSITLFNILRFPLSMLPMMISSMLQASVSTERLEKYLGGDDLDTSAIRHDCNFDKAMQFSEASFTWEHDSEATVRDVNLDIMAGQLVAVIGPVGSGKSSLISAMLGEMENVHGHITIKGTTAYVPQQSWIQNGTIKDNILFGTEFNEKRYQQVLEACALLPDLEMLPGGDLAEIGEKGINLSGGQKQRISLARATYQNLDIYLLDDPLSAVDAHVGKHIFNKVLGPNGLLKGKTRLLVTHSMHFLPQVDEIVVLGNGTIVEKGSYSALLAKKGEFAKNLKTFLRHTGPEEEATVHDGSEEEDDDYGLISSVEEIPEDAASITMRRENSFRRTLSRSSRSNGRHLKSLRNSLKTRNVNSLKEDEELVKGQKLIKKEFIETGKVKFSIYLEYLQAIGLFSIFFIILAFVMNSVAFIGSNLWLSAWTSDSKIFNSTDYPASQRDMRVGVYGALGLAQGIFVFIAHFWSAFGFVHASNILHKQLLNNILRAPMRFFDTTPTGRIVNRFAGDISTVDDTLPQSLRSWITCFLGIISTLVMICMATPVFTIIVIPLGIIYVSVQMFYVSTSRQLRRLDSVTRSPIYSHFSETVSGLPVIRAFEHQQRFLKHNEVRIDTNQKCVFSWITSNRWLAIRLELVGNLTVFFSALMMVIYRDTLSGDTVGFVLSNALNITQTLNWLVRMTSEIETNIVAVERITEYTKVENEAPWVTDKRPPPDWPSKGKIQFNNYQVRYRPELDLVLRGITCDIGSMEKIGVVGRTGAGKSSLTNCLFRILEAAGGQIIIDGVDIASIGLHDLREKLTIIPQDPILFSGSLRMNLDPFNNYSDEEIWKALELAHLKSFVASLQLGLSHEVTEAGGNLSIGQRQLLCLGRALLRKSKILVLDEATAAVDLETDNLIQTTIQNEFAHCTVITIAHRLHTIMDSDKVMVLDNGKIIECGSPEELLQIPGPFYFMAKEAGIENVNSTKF

[3] = biological target: ATP-binding cassette sub-family C member 3 (Homo sapiens, UniProt O15438); test: Inhibition of human MRP3 overexpressed in Sf9 insect cell membrane vesicles assessed as uptake of [3H]-estradiol-17beta-D-glucuronide in presence of ATP and GSH measured after 10 mins by membrane vesicle transport assay; format: ADME, cell-based
Sequence of ATP-binding cassette sub-family C member 3 (O15438 whole entry): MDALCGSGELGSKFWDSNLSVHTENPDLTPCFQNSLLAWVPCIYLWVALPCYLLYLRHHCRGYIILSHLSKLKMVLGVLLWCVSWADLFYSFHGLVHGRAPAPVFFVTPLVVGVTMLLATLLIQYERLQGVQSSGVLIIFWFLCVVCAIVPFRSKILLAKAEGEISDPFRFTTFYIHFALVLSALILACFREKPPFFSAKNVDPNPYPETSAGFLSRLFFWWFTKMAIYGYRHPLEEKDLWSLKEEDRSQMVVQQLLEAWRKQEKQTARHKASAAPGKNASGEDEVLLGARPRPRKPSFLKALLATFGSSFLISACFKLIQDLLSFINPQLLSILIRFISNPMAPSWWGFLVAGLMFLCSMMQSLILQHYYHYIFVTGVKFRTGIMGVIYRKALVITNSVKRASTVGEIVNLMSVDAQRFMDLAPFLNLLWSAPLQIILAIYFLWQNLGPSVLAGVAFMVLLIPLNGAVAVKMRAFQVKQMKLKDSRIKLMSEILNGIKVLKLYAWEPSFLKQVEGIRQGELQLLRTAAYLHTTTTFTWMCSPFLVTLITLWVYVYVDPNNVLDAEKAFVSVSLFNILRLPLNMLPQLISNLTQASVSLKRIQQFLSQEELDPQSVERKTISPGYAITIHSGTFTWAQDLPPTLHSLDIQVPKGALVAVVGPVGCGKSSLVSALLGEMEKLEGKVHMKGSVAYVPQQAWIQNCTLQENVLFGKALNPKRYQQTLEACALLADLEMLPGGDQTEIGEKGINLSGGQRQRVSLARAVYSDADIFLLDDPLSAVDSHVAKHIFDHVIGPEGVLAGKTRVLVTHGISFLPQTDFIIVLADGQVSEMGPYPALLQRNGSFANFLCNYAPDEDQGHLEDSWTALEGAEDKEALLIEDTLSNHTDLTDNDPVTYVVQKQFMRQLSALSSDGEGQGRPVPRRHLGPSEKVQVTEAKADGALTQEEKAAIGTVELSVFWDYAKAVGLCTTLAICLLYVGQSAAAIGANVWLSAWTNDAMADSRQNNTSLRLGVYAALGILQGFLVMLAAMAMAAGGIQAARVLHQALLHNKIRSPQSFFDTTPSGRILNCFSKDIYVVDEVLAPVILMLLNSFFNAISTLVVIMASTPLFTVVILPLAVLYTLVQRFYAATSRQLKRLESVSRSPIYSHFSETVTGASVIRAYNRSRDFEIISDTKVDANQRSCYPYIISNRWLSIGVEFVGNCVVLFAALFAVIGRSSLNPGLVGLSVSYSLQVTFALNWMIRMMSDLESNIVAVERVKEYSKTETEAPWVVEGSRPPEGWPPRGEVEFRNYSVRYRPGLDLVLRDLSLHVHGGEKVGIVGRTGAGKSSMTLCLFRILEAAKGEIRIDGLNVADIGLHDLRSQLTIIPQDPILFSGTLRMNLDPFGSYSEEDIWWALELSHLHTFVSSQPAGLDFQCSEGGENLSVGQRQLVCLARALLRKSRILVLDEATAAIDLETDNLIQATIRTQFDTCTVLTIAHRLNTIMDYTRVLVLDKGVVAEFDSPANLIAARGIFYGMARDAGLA

[4] = biological target: T1, ATP-binding cassette sub-family C member 4 (Homo sapiens, UniProt O15439); test: Inhibition of human MRP4 overexpressed in Sf9 cell membrane vesicles assessed as uptake of [3H]-estradiol-17beta-D-glucuronide in presence of ATP and GSH measured after 20 mins by membrane vesicle transport assay; format: ADME, cell-based
T1 sequence (O15439 whole entry): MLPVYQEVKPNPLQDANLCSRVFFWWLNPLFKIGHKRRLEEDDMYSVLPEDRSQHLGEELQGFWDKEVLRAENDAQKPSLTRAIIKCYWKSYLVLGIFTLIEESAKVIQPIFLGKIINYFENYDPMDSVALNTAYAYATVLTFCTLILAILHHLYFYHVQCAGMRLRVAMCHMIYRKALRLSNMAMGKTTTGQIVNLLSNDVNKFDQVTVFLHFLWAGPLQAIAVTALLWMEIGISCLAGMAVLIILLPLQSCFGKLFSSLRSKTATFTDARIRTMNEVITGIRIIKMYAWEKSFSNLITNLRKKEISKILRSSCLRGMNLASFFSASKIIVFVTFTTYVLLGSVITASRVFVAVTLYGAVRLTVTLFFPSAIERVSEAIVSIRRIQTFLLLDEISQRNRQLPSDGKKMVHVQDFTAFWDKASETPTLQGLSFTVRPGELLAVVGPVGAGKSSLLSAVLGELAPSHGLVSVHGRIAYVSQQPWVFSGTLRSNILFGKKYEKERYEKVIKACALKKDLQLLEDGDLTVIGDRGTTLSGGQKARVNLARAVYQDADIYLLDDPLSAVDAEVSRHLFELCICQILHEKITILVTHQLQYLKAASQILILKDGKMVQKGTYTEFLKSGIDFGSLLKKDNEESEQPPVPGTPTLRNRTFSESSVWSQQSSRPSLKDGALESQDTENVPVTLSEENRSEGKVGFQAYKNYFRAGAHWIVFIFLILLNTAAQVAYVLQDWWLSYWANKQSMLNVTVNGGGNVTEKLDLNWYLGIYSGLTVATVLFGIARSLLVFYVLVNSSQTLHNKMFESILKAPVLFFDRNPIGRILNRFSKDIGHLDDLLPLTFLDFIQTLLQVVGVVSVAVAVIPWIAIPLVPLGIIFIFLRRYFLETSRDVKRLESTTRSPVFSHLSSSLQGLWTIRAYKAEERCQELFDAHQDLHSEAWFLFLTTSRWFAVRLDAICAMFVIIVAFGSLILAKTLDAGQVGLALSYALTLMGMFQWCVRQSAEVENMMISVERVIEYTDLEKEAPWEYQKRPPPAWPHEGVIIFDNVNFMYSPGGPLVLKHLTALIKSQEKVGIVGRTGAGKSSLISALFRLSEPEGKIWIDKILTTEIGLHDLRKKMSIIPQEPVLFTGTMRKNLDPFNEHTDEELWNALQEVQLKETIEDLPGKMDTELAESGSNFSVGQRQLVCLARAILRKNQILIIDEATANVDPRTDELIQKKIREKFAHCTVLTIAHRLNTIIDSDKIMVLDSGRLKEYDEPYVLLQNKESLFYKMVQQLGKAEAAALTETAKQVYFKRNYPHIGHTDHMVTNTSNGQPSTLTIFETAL

[5] = AUC in human at 0.5 mg, po QD after 24 hrs; format: ADME, organism-based; parameters: time < 24 hr, dose 0.5 mg, route oral; details: in vivo
[6] = Drug concentration at steady state in human at 0.5 mg, po QD after 24 hrs; format: ADME, organism-based; details: in vivo, read-out: Css
[7] = Ratio of drug concentration at steady state in human at 0.5 mg, po QD after 24 hrs to IC50 for human BSEP overexpressed in Sf9 insect cells; format: ADME, organism-based; details: in vivo
[8] = AUC in human at 1% applied topically BID after 12 hrs; format: ADME; parameters: time < 12 hr; details: topical or ocular
[9] = Drug concentration in human at steady state at 1% applied topically BID after 12 hrs; format: ADME; details: topical or ocular, read-out: Css
[10] = Ratio of drug concentration at steady state at 1% applied topically BID after 12 hrs to IC50 for human BSEP overexpressed in Sf9 insect cells; format: ADME; details: topical_or_ocular
[11] = tested on: Homo sapiens; test: Drug concentration at steady state in human at 0.01 to 0.04 mg/kg, po after 24 hrs; format: ADME, organism-based; details: in vivo
[12] = clinical; details: human, in vivo, po
[13] = AUC in human at 5 to 80 mg, po QD after 24 hrs; format: ADME, organism-based; details: in vivo
[14] = Drug concentration at steady state in human at 5 to 80 mg, po QD after 24 hrs; format: ADME, organism-based; details: in vivo, read-out: Css
[15] = AUC in human at 2.5 to 20 mg, po QD after 24 hrs; format: ADME, organism-based; details: in vivo
[16] = Drug concentration at steady state in human at 2.5 to 20 mg, po QD after 24 hrs; format: ADME, organism-based; details: in vivo, read-out: Css
[17] = Ratio of drug concentration at steady state in human at 2.5 to 20 mg, po QD after 24 hrs to IC50 for human BSEP overexpressed in Sf9 insect cells; format: ADME, organism-based; details: in vivo
[18] = AUC in human at 20 to 60 mg, po QD after 24 hrs; format: ADME, organism-based; details: in vivo
[19] = Drug concentration at steady state in human at 20 to 60 mg, po QD after 24 hrs; format: ADME, organism-based; details: in vivo, read-out: Css
[20] = Ratio of drug concentration at steady state in human at 20 to 60 mg, po QD after 24 hrs to IC50 for human BSEP overexpressed in Sf9 insect cells; format: ADME, organism-based; details: in vivo
[21] = Ratio of drug concentration at steady state in human at 20 to 60 mg, po QD after 24 hrs to IC50 for human MRP4 overexpressed in Sf9 insect cells; format: ADME, organism-based; details: in vivo
[22] = AUC in human at 5 to 30 mg, po QD after 24 hrs; format: ADME, organism-based; details: in vivo
[23] = Drug concentration at steady state in human at 5 to 30 mg, po QD after 24 hrs; format: ADME, organism-based; details: in vivo, read-out: Css

Compound	pIC50 [1]	pIC50 [2]	pIC50 [3]	pIC50 [4]	also measured
C[C@]12C=CC(=O)N[C@@H]1CC[C@@H]1[C@@H]2CC[C@]2(C)[C@@H](C(=O)Nc3cc(C(F)(F)F)ccc3C(F)(F)F)CC[C@@H]12 [DUTASTERIDE]	4.53	< 3.88	< 3.88	< 3.88	AUC at 24 h [5]: 0.078 µM·h; concentration at 24 h [6]: 3 nM; Ratio [7]: 0.00011
CC[C@@H]1/C=C(\C)C[C@H](C)C[C@H](OC)[C@H]2O[C@@](O)(C(=O)C(=O)N3CCCC[C@H]3C(=O)O[C@H](/C(C)=C/[C@@H]3CC[C@H](Cl)[C@H](OC)C3)[C@H](C)[C@@H](O)CC1=O)[C@H](C)C[C@@H]2OC [PIMECROLIMUS]	5.00	< 3.88	< 3.88	< 3.88	AUC at 12 h [8]: 0.023 µM·h; concentration at 12 h [9]: 2 nM; Ratio [10]: 0.00019
Cc1ncc2n1-c1ccc(Cl)cc1C(c1ccccc1F)=NC2 [MIDAZOLAM]	–	–	–	–	Css [11]: 15 nM; AUC at 24 h [12]: 0.369 µM·h
CCC(C)(C)C(=O)O[C@H]1C[C@@H](C)C=C2C=C[C@H](C)[C@H](CC[C@@H]3C[C@@H](O)CC(=O)O3)[C@H]21 [SIMVASTATIN]	–	< 3.88	< 3.88	< 3.88	AUC at 24 h [13]: 0.212 µM·h; concentration at 24 h [14]: 9 nM
COC(=O)C1=C(C)NC(C)=C(C(=O)OC(C)C)C1c1cccc2nonc12 (stereo unspecified) [ISRADIPINE]	4.55	< 3.88	< 3.88	< 3.88	AUC at 24 h [15]: 0.197 µM·h; concentration at 24 h [16]: 8 nM; Ratio [17]: 0.0003
COC(=O)C1=C(C)NC(C)=C(C(=O)OCC(C)C)C1c1ccccc1[N+](=O)[O-] (stereo unspecified) [NISOLDIPINE]	4.48	< 3.88	< 3.88	4.78	AUC at 24 h [18]: 0.134 µM·h; concentration at 24 h [19]: 6 nM; Ratio [20]: 0.00017; Ratio [21]: 0
CCN(CC)CC#CCOC(=O)C(O)(c1ccccc1)C1CCCCC1 (stereo unspecified) [OXYBUTYNIN]	–	< 3.88	< 3.88	< 3.88	AUC at 24 h [22]: 0.039 µM·h; concentration at 24 h [23]: 2 nM
